As usually defined, the melting point is the temperature of the solid-liquid transition. Regarding `COc1ccc(C(CC(=O)O)N2C(=O)c3ccccc3C2=O)cc1OC1CCCC1` (centres unmarked) [Example 2, 3-Phthalimido-3-(3-cyclopentyloxy-4-methoxyphenyl)propionic Acid], the melting point fell in the range of 159 to 162 °C.

Molecule `COC(=O)CC(c1ccc(OC)c(OC2CCCC2)c1)N1C(=O)c2ccccc2C1=O` (centres unmarked) [Example 5, Methyl 3-phthalimido-3-(3-cyclopentyloxy-4-methoxyphenyl)propionate] registered a melting point of 76 to 78 °C.

(Values after patent US7081464B2, “Topical compositions of cyclic amides as immunotherapeutic agents” (Celgene Corporation, priority 1995, dated 2006).)
